From patent publication US20030153549A1, “Clavams as protease inhibitors” (priority 2000, published 2003)

Legend:
[1] = target: porcine pancreatic elastase PPE (Sus scrofa, UniProt P00772); assay: Enzyme assay: hydrolysis of Suc-AlaAlaProAla-pNa by PPE, measured at 405 nm; type: biochemical; conditions: for IC50: substrate 100 μM, 25° C., pH 7.5, 10% DMSO; for inhibitory potency with pre-incubation of the clavam with PPE: with pre-incubation versus without
Protocol: Enzyme assays. Enzyme assays were performed using a Shimadzu 1601PC spectrophotometer equipped with a thermostatted multi-cell transport system. The hydrolysis of the para-nitroanilide substrate (Suc-AlaAlaProAla-pNa, 100 μM) was measured at 405 nm and at a constant temperature of 25° C. in 0.1 M Tris-HCl buffer (pH 7.5). At least quadruplicate measurements of the initial rate were determined at five inhibitor concentrations and data analysed using standard kinetic equations programmed into Excel (Microsoft Corp.) and Grafit (Erithacus Inc.). To aid solubility the clavam inhibitors were dissolved in DMSO to give a final concentration in the assay of 10% (v/v).
It is likely that the lack of inhibition observed from clavulanic acid (1) is due to the presence of a negative charge on the carboxylic acid on C-3 which prevents binding within the PPE active site.

PPE [2] = target: T1, PPE (Sus scrofa, UniProt P00772); assay: Electrospray ionisation mass spectrometry of PPE incubated with one equivalent of inhibitor (adduct formation); type: binding, porcine; conditions: time points 3 minutes to 5 hours, unbuffered
T1 sequence (P00772 27-266): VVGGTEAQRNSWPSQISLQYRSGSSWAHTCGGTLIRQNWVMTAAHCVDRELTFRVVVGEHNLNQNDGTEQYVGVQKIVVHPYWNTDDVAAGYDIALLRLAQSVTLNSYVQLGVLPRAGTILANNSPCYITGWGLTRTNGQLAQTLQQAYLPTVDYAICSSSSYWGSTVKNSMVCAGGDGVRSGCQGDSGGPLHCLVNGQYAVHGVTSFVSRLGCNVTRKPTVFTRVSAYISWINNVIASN
Protocol: Electrospray ionisation mass spectrometry. Electrospray ionisation mass spectra were recorded on a Micromass BioQ II-ZS triple quadruple mass spectrometer equipped with an electrospray interface. PPE at 80 pmol μl^−1 was incubated with one equivalent of inhibitor. Samples (5 μl) were removed at fixed time points, diluted with water:acetonitrile (1:1 v/v) containing 0.2% (v/v) formic acid to give a protein concentration of 5 pmol μl^−1 and analysed immediately. The resulting electrospray mass spectra were calibrated relative to native porcine pancreatic elastase PPE and processed using the MaxEnt algorithm and the spectra reported as centroided data.

PPE [3] = target: T1, PPE; assay: 1H NMR analysis of incubation of PPE with clavulanic acid derivative (ester hydrolysis); type: biochemical, porcine; conditions: D2O/CD3CN, 303K
Protocol: NMR experimental procedures. ^1H NMR analyses were performed at 500 MHz on a Bruker AMX500 instrument. Samples (450-500 μl) of PPE (ca. 3 mg) and clavulanic acid derivative (ca 3 mg) were dissolved in 10% (v/v) CD3CN in D2O. The temperature was regulated at 303K and the spectra were referenced to internal MeCN at 2.05 ppm.
Their identity was subsequently confirmed by doping experiments.

porcine pancreatic elastase PPE, sequence (P00772 27-266): as above

Row | Compound | inhibition of PPE ([1]; standard assay conditions) | mass increments / adducts relative to native PPE (ESIMS) (PPE [2]) | inhibition ([1]; pre-incubation of clavam with PPE 15 minutes) [%] | inhibition ([1]; pre-incubation of clavam with PPE 30 minutes) [%] | inhibition ([1]; pre-incubation of clavam with PPE 60 minutes) [%] | IC50 ([1]; standard assay conditions) [µM] | inhibitory potency with pre-incubation of the clavam with PPE [1] | PPE-catalysed hydrolysis of the ester side chain (1H NMR) (PPE [3])
1 | O=C(O)[C@H]1/C(=C/CO)O[C@@H]2CC(=O)N21 [compound 1, Clavulanic acid, reference compound] | did not inhibit PPE | no mass increments |  |  |  |  |  | 
2 | O=C(OCc1ccccc1)[C@H]1/C(=C/CO)O[C@@H]2CC(=O)N21 [compound 9] |  | formation of an initial acyl-enzyme complex | 43 | 87 | 93 | 184 | increased significantly | just visible after a one hour incubation period
3 | O=C(OCc1ccc([N+](=O)[O-])cc1)[C@H]1/C(=C/CO)O[C@@H]2CC(=O)N21 [compound 10] |  | formation of the 70 and 88 Da adducts appeared to be slightly faster |  |  |  | 187 | increased significantly | 
